Experimental findings from patent publication EP4592286A1, “MACROCYCLIC NITROGEN-CONTAINING CROWN ETHER COMPOUND AND USE THEREOF AS PROTEIN KINASE INHIBITOR” (Artivila Biopharma, priority 2022, dated 2024) are described below.

As a reminder, the inhibition is the relative decrease from the control value, in per cent. Usually IC50 stands for the midpoint of a concentration-inhibition curve. As usually defined, the EC50 is the concentration needed to bring the measured effect to its halfway point.

Molecules are shown by their SMILES.

The target in one assay is T1, JAK3 (Homo sapiens, UniProt P52333).
T1 sequence (P52333 1-1124): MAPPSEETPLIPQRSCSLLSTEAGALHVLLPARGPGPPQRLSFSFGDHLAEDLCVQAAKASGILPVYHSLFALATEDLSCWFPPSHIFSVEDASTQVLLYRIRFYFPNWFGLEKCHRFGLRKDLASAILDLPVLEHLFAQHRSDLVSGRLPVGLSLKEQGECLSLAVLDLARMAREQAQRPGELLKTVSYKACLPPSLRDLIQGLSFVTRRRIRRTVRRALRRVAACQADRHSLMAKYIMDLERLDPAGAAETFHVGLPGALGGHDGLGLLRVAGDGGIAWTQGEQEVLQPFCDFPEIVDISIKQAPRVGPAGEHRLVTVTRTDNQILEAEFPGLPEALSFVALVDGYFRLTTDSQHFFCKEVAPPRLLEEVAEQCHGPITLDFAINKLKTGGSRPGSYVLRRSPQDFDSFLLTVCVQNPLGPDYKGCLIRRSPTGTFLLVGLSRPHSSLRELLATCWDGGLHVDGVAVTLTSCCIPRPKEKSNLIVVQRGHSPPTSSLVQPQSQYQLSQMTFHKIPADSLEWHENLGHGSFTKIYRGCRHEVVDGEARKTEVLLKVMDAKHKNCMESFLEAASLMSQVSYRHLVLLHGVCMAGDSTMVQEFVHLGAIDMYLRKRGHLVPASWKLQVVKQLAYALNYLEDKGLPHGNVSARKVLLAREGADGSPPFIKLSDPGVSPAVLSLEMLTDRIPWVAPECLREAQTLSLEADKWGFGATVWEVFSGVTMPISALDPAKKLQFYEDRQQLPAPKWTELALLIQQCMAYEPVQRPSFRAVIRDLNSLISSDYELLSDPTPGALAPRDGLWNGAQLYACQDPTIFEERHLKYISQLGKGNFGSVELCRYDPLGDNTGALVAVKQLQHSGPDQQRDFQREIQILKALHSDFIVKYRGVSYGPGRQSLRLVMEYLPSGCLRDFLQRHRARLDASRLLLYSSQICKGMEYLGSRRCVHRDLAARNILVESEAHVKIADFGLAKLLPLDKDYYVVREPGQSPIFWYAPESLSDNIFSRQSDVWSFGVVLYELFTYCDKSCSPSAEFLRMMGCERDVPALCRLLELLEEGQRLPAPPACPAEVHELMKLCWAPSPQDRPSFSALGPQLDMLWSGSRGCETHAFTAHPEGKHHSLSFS
The assay can be described thus: experiment of inhibiting kinase activity (Caliper mobility shift assay), JAK3. Type of assay: biochemical. The following applies: for inhibition at 0.1 µM: at 100 nM; for IC50: kinase activity assay, Table 3. In short, it runs like this:
(§1)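 Inhibition is measured as reduced conversion of substrate by the kinase, separated by microfluidic mobility shift after a room-temperature reaction started with ATP/substrate following a 10-min compound preincubation. Test doses are 10 nM, 100 nM, or a 10-point 3-fold series from 10 µM.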

For assay [1], the target named is JAK2 (Homo sapiens, UniProt O60674). Description: experiment of inhibiting kinase activity (Caliper mobility shift assay), JAK2. The following applies: read-out: inhibition rate JAK2. In kind it is biochemical. In short, it runs like this:
as §1

The target in the next assay is CDK7 (Homo sapiens, UniProt P50613). Description: experiment of inhibiting kinase activity (Caliper mobility shift assay), CDK7. In kind it is biochemical. The settings on record: at 100 nM; read-out: inhibition rate CDK7. The procedure, abridged: as §1
Another assay addresses LRRK2 (Homo sapiens, UniProt Q5S007). Description: experiment of inhibiting kinase activity, LRRK2. Type of assay: biochemical. The settings on record: at 100 nM; read-out: inhibition rate LRRK2. The method, then:
(§2) The inhibition rates of tested compounds on JAK1, JAK2, JAK3, TYK2, CDK7, CDK9, EGFR (T790M) and LRRK2 kinases were measured. The test concentrations of the compounds were 10 nM and 100 nM, and the detection was performed by replicate wells. Alternatively, compounds were 3-fold serial diluted from 10 µM for 10 concentrations in replicate wells.

The next assay deals with MV-4-11 cells. The assay can be described thus: CDK9 cell activity test (Cell Titer-GLO cell growth inhibition), MV-4-11. In kind it is cell-based. The settings on record: Homo sapiens, MV4-11, 72 hours. The method, then:
In these experiments, the cell line MV-4-11 was cultured in IMDM culture solution (containing 100 U/mL penicillin and 0.1 g/L streptomycin), the cell line HCC1187 was cultured in RPMI-1640 culture solution (containing 100 U/mL penicillin and 0.1 g/L streptomycin) containing 10% fetal bovine serum, the cell line Mia Paca-2 was cultured in DMEM (containing 100 U/mL penicillin and 0.1 g/L streptomycin) containing 10% fetal bovine serum and 2.5% horse serum, and the cell line A375 was cultured in RPMI-1640 culture solution (containing 100 U/mL penicillin and 0.1 g/L streptomycin) containing 10% fetal bovine serum. All cells were cultured in a saturated humidity incubator with 37 °C and 5% CO2.
When MV-4-11 cells, HCC-1187 cells, Mia Paca-2 cells and A375 cells grew to 80% -90% confleuncy, they were digested with trypsin, resuspended, counted and diluted to a certain cell density with complete medium, and inoculated into 96-well plate at 100 µL/well. With complete medium as background control, they were cultured overnight in a saturated humidity incubator with 37°C and 5% CO2. The compound was diluted to 200-fold of the final concentration using DMSO, 3 µL of DMSO storage solution of the above compound was added to 197 µL of complete medium, 50 µL of compound diluted in medium was added to cells in each well, and cultivated in a saturated humidity incubator with 37°C and 5% CO2 for 72 hours. After 72 hours, the culture plate was placed at room temperature for equilibrium, and 40 µl of Cell Titer-GLO® reagent was added to each well. The cells were lysed by mixing evenly for 2 minutes using a shaker, incubated at room temperature for 60 minutes to stabilize the chemiluminescence signal, and the chemiluminescence was read by PE EnVision microtiter plate reader. The cell growth inhibition rate Inh%=(DMSO well - compound treatment well)/(DMSO well - background well)×100 was calculated, and the cell growth IC50 value was obtained by fitting with GraphPad Prism 5 .
(In general: In ATP-based viability assays light output follows the ATP content of the culture.)

The target in the next assay is TYK2 (Homo sapiens, UniProt P29597). The assay can be described thus: experiment of inhibiting kinase activity, TYK2. The settings on record: read-out: inhibition rate TYK2; for inhibition at 0.01 µM: at 10 nM; for inhibition at 0.1 µM: at 100 nM. In kind it is biochemical. As to the method:
as §2

The target in the next assay is CDK9 (Homo sapiens, UniProt P50750). Description: experiment of inhibiting kinase activity (Caliper mobility shift assay), CDK9. Type of assay: biochemical. In short, it runs like this: as §1
Sequence of CDK9 (P50750 whole entry): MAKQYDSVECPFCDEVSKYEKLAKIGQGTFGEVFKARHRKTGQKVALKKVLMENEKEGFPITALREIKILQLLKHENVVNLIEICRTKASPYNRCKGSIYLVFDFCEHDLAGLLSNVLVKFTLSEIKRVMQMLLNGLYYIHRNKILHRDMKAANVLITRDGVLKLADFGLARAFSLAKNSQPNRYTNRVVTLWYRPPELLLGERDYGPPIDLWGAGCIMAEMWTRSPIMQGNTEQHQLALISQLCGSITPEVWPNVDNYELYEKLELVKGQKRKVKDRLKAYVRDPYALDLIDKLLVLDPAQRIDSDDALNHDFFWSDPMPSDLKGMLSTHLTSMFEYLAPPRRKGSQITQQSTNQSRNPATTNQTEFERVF
Sequence of CDK9 (O60563 whole entry partner): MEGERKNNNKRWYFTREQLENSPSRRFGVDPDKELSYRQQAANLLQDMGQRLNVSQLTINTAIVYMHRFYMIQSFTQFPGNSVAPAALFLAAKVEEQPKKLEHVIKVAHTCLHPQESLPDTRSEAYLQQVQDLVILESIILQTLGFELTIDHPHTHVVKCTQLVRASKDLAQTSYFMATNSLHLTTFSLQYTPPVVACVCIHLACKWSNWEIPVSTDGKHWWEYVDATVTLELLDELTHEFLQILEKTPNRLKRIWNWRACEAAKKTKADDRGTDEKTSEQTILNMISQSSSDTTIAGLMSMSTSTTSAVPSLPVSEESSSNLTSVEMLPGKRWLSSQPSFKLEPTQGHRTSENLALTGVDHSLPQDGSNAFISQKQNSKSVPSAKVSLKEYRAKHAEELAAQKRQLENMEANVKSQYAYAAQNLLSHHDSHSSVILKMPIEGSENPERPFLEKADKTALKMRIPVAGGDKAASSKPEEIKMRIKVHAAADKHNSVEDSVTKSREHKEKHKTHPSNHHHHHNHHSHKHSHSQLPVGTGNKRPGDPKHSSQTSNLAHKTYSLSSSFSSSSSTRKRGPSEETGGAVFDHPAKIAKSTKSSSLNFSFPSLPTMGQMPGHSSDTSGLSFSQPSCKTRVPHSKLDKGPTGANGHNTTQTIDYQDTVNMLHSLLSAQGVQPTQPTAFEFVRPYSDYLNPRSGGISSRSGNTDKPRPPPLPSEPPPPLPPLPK
In the next assay the target is JAK1 (Homo sapiens, UniProt P23458). Description: experiment of inhibiting kinase activity (Caliper mobility shift assay), JAK1. In kind it is biochemical. The settings on record: read-out: inhibition rate JAK1. The procedure, abridged: as §1
Sequence of JAK1 (P23458 whole entry): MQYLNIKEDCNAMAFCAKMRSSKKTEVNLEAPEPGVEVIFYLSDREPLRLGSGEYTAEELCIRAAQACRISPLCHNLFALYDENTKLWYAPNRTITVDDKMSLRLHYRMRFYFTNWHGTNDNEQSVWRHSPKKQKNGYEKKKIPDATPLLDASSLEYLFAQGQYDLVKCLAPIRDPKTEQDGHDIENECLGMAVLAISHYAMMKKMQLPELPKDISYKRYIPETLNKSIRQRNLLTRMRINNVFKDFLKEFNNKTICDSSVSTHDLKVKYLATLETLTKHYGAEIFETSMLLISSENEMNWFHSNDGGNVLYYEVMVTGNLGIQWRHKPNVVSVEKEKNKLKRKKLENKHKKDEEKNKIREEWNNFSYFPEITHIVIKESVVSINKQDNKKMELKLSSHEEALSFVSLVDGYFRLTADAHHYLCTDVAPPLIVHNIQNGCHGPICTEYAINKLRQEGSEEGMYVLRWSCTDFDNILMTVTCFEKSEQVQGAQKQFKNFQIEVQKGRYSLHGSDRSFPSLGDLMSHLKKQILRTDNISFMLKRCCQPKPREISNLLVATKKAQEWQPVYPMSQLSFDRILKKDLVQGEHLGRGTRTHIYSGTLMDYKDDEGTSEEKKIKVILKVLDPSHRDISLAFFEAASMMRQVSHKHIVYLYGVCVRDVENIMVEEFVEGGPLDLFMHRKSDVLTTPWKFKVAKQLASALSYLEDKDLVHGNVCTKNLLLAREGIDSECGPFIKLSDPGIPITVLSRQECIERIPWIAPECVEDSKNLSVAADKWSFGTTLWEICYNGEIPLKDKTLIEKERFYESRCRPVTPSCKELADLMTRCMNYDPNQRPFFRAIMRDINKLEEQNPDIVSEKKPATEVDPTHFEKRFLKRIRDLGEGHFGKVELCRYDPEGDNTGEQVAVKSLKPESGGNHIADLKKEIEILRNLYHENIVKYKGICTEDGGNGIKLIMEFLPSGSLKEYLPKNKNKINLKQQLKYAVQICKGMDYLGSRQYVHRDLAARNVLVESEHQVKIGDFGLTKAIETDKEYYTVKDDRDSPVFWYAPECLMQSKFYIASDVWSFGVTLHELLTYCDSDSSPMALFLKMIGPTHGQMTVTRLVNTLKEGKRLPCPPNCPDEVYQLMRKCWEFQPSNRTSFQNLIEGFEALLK
Assay [2] deals with T2, JAK2 (Mus musculus, UniProt Q62120).
T2 construct: endogenous in cells; host or cells: BAF3
T2 sequence (Q62120 whole entry): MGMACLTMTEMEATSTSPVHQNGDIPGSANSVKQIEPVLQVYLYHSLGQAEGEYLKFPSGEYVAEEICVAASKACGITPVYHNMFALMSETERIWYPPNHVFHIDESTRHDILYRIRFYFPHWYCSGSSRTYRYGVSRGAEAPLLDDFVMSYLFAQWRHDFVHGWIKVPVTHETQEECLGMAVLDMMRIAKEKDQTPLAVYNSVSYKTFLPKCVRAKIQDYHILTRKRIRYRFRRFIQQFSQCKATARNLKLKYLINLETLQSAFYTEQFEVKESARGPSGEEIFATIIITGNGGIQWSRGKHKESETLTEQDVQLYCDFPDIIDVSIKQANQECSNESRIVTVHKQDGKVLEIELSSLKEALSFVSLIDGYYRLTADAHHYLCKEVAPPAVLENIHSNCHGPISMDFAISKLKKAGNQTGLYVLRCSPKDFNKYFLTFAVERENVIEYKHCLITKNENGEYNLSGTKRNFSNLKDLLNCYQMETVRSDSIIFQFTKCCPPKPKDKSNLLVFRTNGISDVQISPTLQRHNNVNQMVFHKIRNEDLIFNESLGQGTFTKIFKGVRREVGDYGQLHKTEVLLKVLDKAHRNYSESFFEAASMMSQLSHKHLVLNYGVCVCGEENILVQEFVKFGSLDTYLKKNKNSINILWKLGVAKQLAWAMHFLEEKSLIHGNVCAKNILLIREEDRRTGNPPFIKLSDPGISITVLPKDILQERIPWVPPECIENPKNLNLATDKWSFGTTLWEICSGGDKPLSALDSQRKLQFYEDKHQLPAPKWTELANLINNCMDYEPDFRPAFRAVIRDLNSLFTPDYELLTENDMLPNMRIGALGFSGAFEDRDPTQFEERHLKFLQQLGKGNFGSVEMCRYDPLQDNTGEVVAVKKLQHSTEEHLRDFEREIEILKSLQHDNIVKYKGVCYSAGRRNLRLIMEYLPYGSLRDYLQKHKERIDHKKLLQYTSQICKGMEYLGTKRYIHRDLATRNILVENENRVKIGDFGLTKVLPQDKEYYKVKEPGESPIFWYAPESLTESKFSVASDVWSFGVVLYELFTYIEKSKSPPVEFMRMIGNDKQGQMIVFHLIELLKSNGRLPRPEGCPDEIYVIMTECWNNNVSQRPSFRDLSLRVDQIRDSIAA
Description: JAKs cell activity test: JAK2_pSTAT5 in IL-3-induced BAF3 cells. In kind it is cell-based. The following applies: pSTAT5, IL-3-induced BAF3 cells. The method, then:
THP1 cells were collected by centrifugation, resuspended with 1×HBSS, counted and diluted to a certain cell density. They were inoculated in a 384-well plate and cultured in a saturated humidity incubator with 37 °C and 5% CO2. The compound (DMSO final volume of 0.3%) was added to THP1 cells (10 doses in duplicates) and cultured in a saturated humidity incubator with 37 °C and 5% CO2. hIL-4 was added to stimulate cells and cultured in a saturated humidity incubator with 37 °C and 5% CO2. The lysis solution was added and incubated at room temperature. According to the instructions of AlphaLISA SureFire Ultra p-STAT6 detection kit, the lysis solution was transferred to pSTAT6 detection system, and the ALPHA signal was read by PE Envision microplate reader. The inhibition rate Inh%=((DMSO-sample)/(DMSO-background))×100 was calculated. IC50 was obtained by fitting with GraphPad Prism non-linear regression equation, and y=Bottom+(Top-Bottom)/(1+10^((LogIC50-x)×hillslope)), where x was the concentration of the compound and y was the inhibition rate.
JAK2_pSTAT5 was tesed in IL-3-induced BAF3 cells according to the above steps, and JAK3_pSTAT5 was tested in IL-2-induced CTLL-2 cells (without serum stimulation) according to the above steps.

The target of assay [3] is Wild-type EGFR kinase protein (Homo sapiens, UniProt P00533). The assay can be described thus: experiment of inhibiting EGFR kinase activity (TR-FRET method). In kind it is biochemical. The method, then:
The inhibitory effect of the compounds on EGFR kinase activity was measured by TR-FRET method. The diluted solutions of the compounds were transfered to a 384-well plate (784075, Greiner), the plate was sealed and centrifuged at a speed of 1000 g for 1 minute. Wild-type EGFR kinase protein at 2-fold final concentration was prepared in 1×kinase buffer, 5 µL of wild-type EGFR at 2-fold final concentration was added to 384-well plate, the well plate was centrifuged at 1000 g for 30 seconds, and left at room temperature for 10 minutes. A mixture of 2-fold TK-substrate-biotin (2 µM) and ATP was prepared in 1×kinase buffer, and 5 µL of the mixture of 2×TK-substrate-biotin (2 µM) and ATP was added to start the reaction. The well plate was centrifuged at 1000 g for 30 seconds, sealed and left at room temperature for 40 minutes. […] The fluorescence signal values at 615 nm (Cryptate) and 665 nm (XL665) were detected by using Envision 2104 microplate reader. […] The IC50 was calculated with GraphPad 8.0 and the dose-reponse curve of the compound was plotted as follows: y=Bottom+(Top-Bottom)/(1+10^((logic50-x)×hillslope)), where x was logarithm of inhibitor concentration; and y was % inhibition rate.
Background: TR-FRET usually uses a lanthanide donor and a delayed reading to cut background.

A further assay concerns the target EGFR (T790M) (Homo sapiens, UniProt P00533, T790M). The assay can be described thus: experiment of inhibiting kinase activity, EGFR (T790M). In kind it is biochemical. The following applies: at 10 nM; read-out: inhibition rate EGFR(T790M). As to the method:
as §2

Sequence of TYK2 (P29597 whole entry): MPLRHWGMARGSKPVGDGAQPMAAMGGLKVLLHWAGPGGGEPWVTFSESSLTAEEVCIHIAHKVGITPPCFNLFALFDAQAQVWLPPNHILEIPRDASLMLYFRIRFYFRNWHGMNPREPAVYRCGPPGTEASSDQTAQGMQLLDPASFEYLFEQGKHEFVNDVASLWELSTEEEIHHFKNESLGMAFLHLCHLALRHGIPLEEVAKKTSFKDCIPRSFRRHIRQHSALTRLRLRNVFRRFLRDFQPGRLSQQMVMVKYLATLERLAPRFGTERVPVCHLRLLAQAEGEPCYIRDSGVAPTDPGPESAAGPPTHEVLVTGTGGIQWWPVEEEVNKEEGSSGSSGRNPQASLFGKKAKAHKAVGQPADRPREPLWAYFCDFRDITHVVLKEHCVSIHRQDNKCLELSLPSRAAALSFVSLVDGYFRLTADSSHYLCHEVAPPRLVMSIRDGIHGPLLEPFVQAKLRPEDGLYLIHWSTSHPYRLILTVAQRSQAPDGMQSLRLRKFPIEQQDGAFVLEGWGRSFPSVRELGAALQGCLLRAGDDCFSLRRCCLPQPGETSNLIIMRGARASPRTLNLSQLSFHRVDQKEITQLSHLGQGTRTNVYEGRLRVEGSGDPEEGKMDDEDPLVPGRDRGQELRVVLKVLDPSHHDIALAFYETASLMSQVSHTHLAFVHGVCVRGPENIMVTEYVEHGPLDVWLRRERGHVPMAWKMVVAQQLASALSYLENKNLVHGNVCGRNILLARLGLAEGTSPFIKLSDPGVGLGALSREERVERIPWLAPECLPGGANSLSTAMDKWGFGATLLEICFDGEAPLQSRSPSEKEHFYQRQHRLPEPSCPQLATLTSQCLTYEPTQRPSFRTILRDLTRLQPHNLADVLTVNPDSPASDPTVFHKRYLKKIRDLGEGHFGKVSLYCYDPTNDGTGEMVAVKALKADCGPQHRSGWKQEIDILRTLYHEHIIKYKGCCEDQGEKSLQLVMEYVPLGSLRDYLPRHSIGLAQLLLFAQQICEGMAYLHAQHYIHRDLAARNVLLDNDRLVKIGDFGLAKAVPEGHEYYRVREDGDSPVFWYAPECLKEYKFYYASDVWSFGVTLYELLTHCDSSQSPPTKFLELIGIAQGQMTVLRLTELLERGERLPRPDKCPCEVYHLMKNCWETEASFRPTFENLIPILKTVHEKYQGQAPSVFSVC

On to `CN1CCOCCOc2ccc(Nc3ncc(F)c(-c4ccc(C(=O)NCC#N)cc4)n3)cc2OCC1` [Example 44, N-(cyanomethyl)-4-(5-fluoro-2-((7-methyl-2,3,6,7,8,9-hexahydro-5H-benzo[b] [1,4,7]trioxa[10]azacyclododecan-12-yl)amino)pyrimidin-4-yl)benzamide], for which the inhibition at 0.1 µM was 40 to 79% at JAK3 (read-out: inhibition rate JAK3); above 80% on JAK2 [1] (at 100 nM); 40 to 79% at CDK7; 40 to 79% at LRRK2; above 80% at TYK2; above 80% on CDK9 (at 100 nM, read-out: inhibition rate CDK9). Further, the inhibition at 0.1 µM at JAK1 (at 100 nM) was above 80%. For the same compound, the inhibition at 0.01 µM is above 80% on JAK2 [1] (at 10 nM); 40 to 79% on TYK2; 40 to 79% at CDK9 (at 10 nM, read-out: inhibition rate CDK9); 25 to 39% on JAK1 (at 10 nM). Moreover, the IC50 was below 100 nM in the assay with MV-4-11 cells and below 50 nM on CDK9 (kinase activity assay, Table 3).
For `CN1CCOc2ccc(Nc3nc(-c4cnn(C(CC#N)C5CCCC5)c4)c4cc[nH]c4n3)cc2OCC1` (stereo not shown) [Example 27], the inhibition at 0.01 µM is 40 to 79% on JAK3 (at 10 nM, read-out: inhibition rate JAK3) and 40 to 79% at TYK2. Besides, the inhibition at 0.1 µM on JAK3 (read-out: inhibition rate JAK3) and at TYK2 was above 80% each time. Besides, the IC50 on JAK3 is below 50 nM. This compound gave an EC50 at JAK2 [2] of 50 to 500 nM.
In [3], `C=CC(=O)Nc1cccc(Nc2nc(Nc3ccc4c(c3)OCCN(C)CCOCCO4)ncc2Cl)c1` [Example 56, N-(3-((5-chloro-2-((7-methyl-2,3,6,7,8,9-hexahydro-5H-benzo[b][1,4,7]trioxa[10]azacyclododecan-12-yl)amino)pyrimidin-4-yl)amino)phenyl)acrylamide] registered an IC50 below 50 nM. The inhibition at 0.01 µM on EGFR (T790M) was above 80%.
With `CCS(=O)(=O)N1CC(CC#N)(n2cc(-c3nc(Nc4ccc5c(c4)OCCN(C)CCO5)nc4[nH]ccc34)cn2)C1` [Example 28], at JAK3, the IC50 is below 50 nM. At TYK2, the inhibition at 0.01 µM was above 80% and the inhibition at 0.1 µM was above 80%. For the same compound, the EC50 on JAK2 [2] lay within 50 to 500 nM.
